Laboratory results as given in ChEMBL document CHEMBL3044540, “Synthesis and Fungicidal Activity of New 6-Alkyl-2-alkylamino-4H-1, 3, 2-benzodioxaphosphorin 2-Sulfides” (1998).

Tests used:
Type in all cases: functional
[1] = tested on: Pythium; test: Antifungal activity against Pythium sp. assessed as growth inhibition at 100 ppm by agar dilution method; conditions: read-out: GI
[2] = tested on: Pythium; test: Antifungal activity against Pythium sp. assessed as growth inhibition at 10 ppm by agar dilution method; conditions: read-out: GI
[3] = tested on: Athelia rolfsii; test: Antifungal activity against Athelia rolfsii assessed as growth inhibition at 10 ppm by agar dilutopn method; conditions: Agroathelia rolfsii; read-out: GI
[4] = tested on: Athelia rolfsii; test: Antifungal activity against Athelia rolfsii assessed as growth inhibition at 100 ppm by agar dilutopn method; conditions: Agroathelia rolfsii; read-out: GI

SMILES | inhibition of growth at 100 ppm [1] [%] | inhibition of growth at 10 ppm [2] [%] | inhibition of growth at 10 ppm [3] [%] | inhibition of growth at 100 ppm [4] [%]
CCCCNP1(=S)OCc2cc(CCCC)ccc2O1 (centres undefined) | 33 | 5 | 44 | 70
CCCCc1ccc2c(c1)COP(=S)(NCC(C)C)O2 (centres undefined) | 28 | 8 | 22 | 48
CCCCc1ccc2c(c1)COP(=S)(NC(C)CC)O2 (centres undefined) | 38 | 33 | 24 | 47
CCCNP1(=S)OCc2cc(C(C)CC)ccc2O1 (centres undefined) | 48 | 14 | 48 | 77
CCC(C)c1ccc2c(c1)COP(=S)(NC(C)C)O2 (centres undefined) | 48 | 0 | 28 | 75
CCCCNP1(=S)OCc2cc(C(C)CC)ccc2O1 (centres undefined) | 11 | 4 | 39 | 63
CCC(C)c1ccc2c(c1)COP(=S)(NCC(C)C)O2 (centres undefined) | 14 | 0 | 31 | 63
CCC(C)NP1(=S)OCc2cc(C(C)CC)ccc2O1 (centres undefined) | 7 | 0 | 0 | 37
CCCNP1(=S)OCc2cc(CCC)ccc2O1 (centres undefined) | 87 | 66 | 63 | 92
CCCc1ccc2c(c1)COP(=S)(NC(C)C)O2 (centres undefined) | 80 | 59 | 57 | 81
CCCCNP1(=S)OCc2cc(CCC)ccc2O1 (centres undefined) | 65 | 54 | 66 | 76
CCCc1ccc2c(c1)COP(=S)(NCC(C)C)O2 (centres undefined) | 57 | 44 | 59 | 79
CCCc1ccc2c(c1)COP(=S)(NC(C)CC)O2 (centres undefined) | 59 | 44 | 44 | 64
CCCNP1(=S)OCc2cc(C(C)C)ccc2O1 (centres undefined) | 75 | 57 | 58 | 90
CC(C)NP1(=S)OCc2cc(C(C)C)ccc2O1 (centres undefined) | 82 | 53 | 58 | 90
CCCCNP1(=S)OCc2cc(C(C)C)ccc2O1 (centres undefined) | 49 | 29 | 56 | 70
CC(C)CNP1(=S)OCc2cc(C(C)C)ccc2O1 (centres undefined) | 18 | 14 | 49 | 76
CCC(C)NP1(=S)OCc2cc(C(C)C)ccc2O1 (centres undefined) | 43 | 11 | 34 | 68
CCCCc1ccc2c(c1)COP(=S)(NCCC)O2 (centres undefined) | 72 | 54 | 55 | 71
CCCCc1ccc2c(c1)COP(=S)(NC(C)C)O2 (centres undefined) | 57 | 54 | 42 | 59
CC(C)OP(=O)(OC(C)C)SCc1ccccc1 [IPROBENFOS] | 89 | 42 | 69 | 100
